Measurements from ChEMBL document CHEMBL3351419, “Orally bioavailable 6-chloro-7-methoxy-4(1H)-quinolones efficacious against multiple stages of Plasmodium” (J Med Chem, 2014).

What was measured:
Plasmodium falciparum [1] = experiment: Antimalarial activity against multi-drug-resistant Plasmodium falciparum W2 infected in human type A+ erythrocytes assessed as growth inhibition after 72 hrs by SYBR Green I assay; assay type: functional, organism-based; details: W2, 72 h
Plasmodium falciparum [2] = experiment: Antimalarial activity against multi-drug-resistant Plasmodium falciparum TM90-C2B infected in human type A+ erythrocytes assessed as growth inhibition after 72 hrs by SYBR Green I assay; assay type: functional, organism-based
[3] = Resistance index, ratio of EC50 for multi-drug-resistant Plasmodium falciparum TM90-C2B infected in human type A+ erythrocytes to EC50 for multi-drug-resistant Plasmodium falciparum W2 infected in human type A+ erythrocytes; assay type: functional
J774 = experiment: Cytotoxicity against mouse J774 cells after 72 hrs by CellTiter 96 assay; assay type: cell-based; details: J774, 72 h
[4] = Cytotoxicity index, ratio of EC50 for mouse J774 cells to EC50 for multi-drug-resistant Plasmodium falciparum TM90-C2B infected in human type A+ erythrocytes; assay type: toxicity, cell-based; details: read-out: Ratio EC50

SMILES	EC50 (Plasmodium falciparum [1])	EC50 (Plasmodium falciparum [2])	Ratio EC50 [3]	EC50 (J774)	selectivity ratio [4]
COc1cc2[nH]c(C)c(-c3c(F)cccc3F)c(=O)c2cc1Cl	35.7 nM	8.64 nM	0.24	> 29800 nM	> 3450
COc1cc2[nH]c(C)c(-c3cc4ccccc4o3)c(=O)c2cc1Cl	133 nM	138 nM	1.04	> 29400 nM	> 214
COc1cc2[nH]c(C)c(-c3ccc(OC)c(F)c3F)c(=O)c2cc1Cl	157 nM	403 nM	2.57	> 27300 nM	> 67.8
COc1cc2[nH]c(C)c(-c3ccc(C(=O)O)cc3)c(=O)c2cc1Cl	517 nM	73.1 nM	0.14	> 29100 nM	> 398
COc1cc2[nH]c(C)c(-c3ccc(C(C)(C)C)cc3)c(=O)c2cc1Cl	66.8 nM	116 nM	–	> 28100 nM	–
COc1cc2[nH]c(C)c(-c3ccccc3CO)c(=O)c2cc1Cl	258 nM	277 nM	1.08	> 30300 nM	> 109
COc1cc2[nH]c(C)c(-c3cncnc3)c(=O)c2cc1Cl	2990 nM	1360 nM	0.45	> 33100 nM	> 24.4
COc1cc2[nH]c(C)c(-c3ccc(C)cc3C)c(=O)c2cc1Cl	9.15 nM	3.17 nM	0.35	3740 nM	1180
COc1cc2[nH]c(C)c(-c3ccc(S(=O)(=O)N(C)C)cc3)c(=O)c2cc1Cl	1890 nM	152 nM	0.08	> 24600 nM	> 162
COc1cc2[nH]c(C)c(-c3ccc(O)cc3)c(=O)c2cc1Cl	2860 nM	467 nM	0.16	> 31700 nM	> 67.8
COc1cc2[nH]c(C)c(-c3ccc4nonc4c3)c(=O)c2cc1Cl	1970 nM	80.6 nM	0.04	> 29300 nM	> 363
COc1cc2[nH]c(C)c(-c3cccc(CO)c3)c(=O)c2cc1Cl	5400 nM	829 nM	0.15	> 30300 nM	> 36.6
COc1cc2[nH]c(C)c(-c3ccc(OCc4ccccc4)cc3)c(=O)c2cc1Cl	10.6 nM	1.28 nM	0.12	> 24600 nM	> 19300
COc1cc2[nH]c(C)c(-c3ccccn3)c(=O)c2cc1Cl	928 nM	214 nM	0.23	> 33300 nM	> 156
COc1cc2[nH]c(C)c(-c3ccc(C(F)(F)F)cc3F)c(=O)c2cc1Cl	21.4 nM	10.4 nM	0.48	> 25900 nM	> 2500
COc1cc2[nH]c(C)c(-c3cc4ccccc4s3)c(=O)c2cc1Cl	71.8 nM	24.8 nM	0.35	> 28100 nM	> 1130
COC(=O)c1ccc(-c2c(C)[nH]c3cc(OC)c(Cl)cc3c2=O)cc1	22.5 nM	26 nM	1.16	> 27900 nM	> 1080
COc1cc2[nH]c(C)c(-c3ccc(N(C)C)cc3)c(=O)c2cc1Cl	60.7 nM	15.3 nM	0.25	–	> 1900
COc1cc2[nH]c(C)c(-c3ccc(COc4ccccc4)cc3)c(=O)c2cc1Cl	1.3 nM	0.638 nM	0.49	–	–
COc1cc2[nH]c(C)c(-c3ccc(OCc4ccc(F)cc4)cc3)c(=O)c2cc1Cl	5.18 nM	1.56 nM	–	> 23600 nM	–
COc1cc2[nH]c(C)c(-c3ccc(C=O)cc3)c(=O)c2cc1Cl	5520 nM	> 3810 nM	0.7	> 30500 nM	–
